A short description of data set [1]: Release of entrained cargo from PEG-OND hydrogels. The format is physicochemical. To be noted: pH 7.4 PBS, 37° C.; first-order fit. The protocol:
Finally, the diffusion of entrained, rather than covalently anchored, cargos of different sizes out of OND hydrogels of differing stabilities was measured. This was done with a small molecule (carboxyfluorescein), a globular protein (fluorescein-labeled bovine serum albumin, BSA), and a 30-nm protein nanoparticle (fluorescein-labeled bacteriophage Qb virus-like particle). The first and last species have no available thiol groups; the second was reacted with N-ethylmaleimide before gelation to cap cysteine-34 and avoid tethering of the protein cargo to the hydrogel network. Hydrogels derived from 4-PEG-SH and 7a, 7b, or 8 were formed in the presence of each cargo; the speed of this reaction made it highly unlikely that OND connectors were addressed by protein amine groups under these conditions.
Three sets of three 60 μL gels were prepared using linkers 7a, 7b, and 8, respectively. The first set contained 1 mM small molecule probe 5/6-carboxyfluorescein, while the second and third sets contained FITC labeled BSA and Qβ virus-like particle, respectively. The gels were allowed to set for 30 minutes at room temperature before dilution with 3 mL of pH 7.4 100 mM phosphate buffered saline. The samples were incubated at 37° C. and the increase in absorbance of the supernatant at 497 nm was monitored. The fraction of released dye was plotted against incubation time. Least-squares kinetic fitting to a first-order rate law was performed for release profiles obtained for carboxyfluorescein cargo, and for the release of BSA from non-degradable PEG-EONB (8) hydrogel (Solver plug-in, Microsoft Excel).

A short description of data set [2]: Degradation of neat PEG-OND hydrogels (inversion test, time-lapse photography). Format: physicochemical. To be noted: neat gel; for Time gel is stable / collapses (inversion test): no swelling buffer. The protocol: Degradation rates of the PEG-OND hydrogels in the absence of swelling buffer varied with temperature and with the identity of OND used to form the gel. […] In comparison, gels formed using 7b were stable for more than 60 hours at 37° C., and approximately 13 hours at 50° C.
Three 500 μL 3.5 wt % hydrogels were formed with bis-ONDs 7a and 7b, and bis-EONB 8, respectively, in 2 mL vials with caps. The sealed vials were incubated in an oil bath maintained at 50° C. The samples were periodically removed from heat and the vials were inverted to determine if the gel was still intact, or whether the sample was a free-flowing liquid, as described in the main text. The gel formed between 4-PEG-SH and bis-EONB 8 in FIG. 9 was removed from heat after 5 days, and stored at room temperature in a sealed vial. The hydrogel is still intact at the time of writing (5 days at 50° C. followed by >1 year at room temperature). The inversion test was routinely used in all stability experiments to verify hydrogel integrity during incubation.
In order to observe reverse gelation upon prolonged heating of neat hydrogels, time-lapse photography was carried out. Briefly, 600 μL hydrogels comprised of 3.5 wt % 4-PEG-SH+bis-OND/EONB (7a, 7b, and 8, respectively) in pH 7.4 100 mM potassium phosphate buffer containing 7% DMSO (v/v) were formed in glass culture tubes and allowed to set for 15 minutes. A glass bead (˜160 mg, stained with blue Sharpie-brand marker to improve visibility) was placed carefully on top of each gel, and a drop of silicon oil was added to prevent evaporation at the surface of the gels. The tubes were sealed with lab parafilm and incubated in a 50° C. oil bath. Photos were collected every 2 minutes for ˜22 hours using Chronolapse software (v.1.0.4) and a Creative Labs webcam. Photographs were compiled in chronological order using iMovie software, with each photo occupying one 0.1 s frame. The resulting video is available as S1 Video, mentioned above.

Data set [3] in a line: Equilibrium swelling, gel fraction and Mc (Flory-Rehner) of PEG-OND hydrogels. Format: physicochemical. The following applies: for Mc (apparent molecular weight between elastic crosslinks): calculated with the Flory-Rehner equation from swelling results; for Gel Fraction: mass of dry residue post-swelling/input mass of OND and 4-PEG-SH; for Equilibrium Swelling Ratio: mass post-swelling/mass pre-swelling, deionized water, 4° C., 24 hours, n = 3 gels. The protocol: The swelling of the PEG-OND hydrogels in deionized water was measured at 4° C. to prevent significant fragmentation during the experiment. […] An independent experiment measuring soluble fraction thiol content yielded results complementing those obtained gravimetrically (Table S3, and related discussion below). With the knowledge that small molecules can readily permeate swollen PEG-OND hydrogels (see below), detecting and modifying residual thiols in gels prepared from divalent linkers 7a and 8 by swelling in the presence of a fluorogenic OND derivative was attempted (FIG. 15, and related discussion below).
200 μL gels were prepared in pH 7.4 100 mM phosphate buffered saline containing 7% DMSO with 3.5 wt % 4-PEG-SH and the corresponding bis-, tris-, and tetra-ONDs to provide a 1:1 thiol to electrophile ratio, and allowed to cure for 20 minutes at room temperature. The mass of the gels after curing was recorded (Meq) before suspending in 5.5 mL of water. The hydrogels were stored at 4° C. during swelling to prevent significant degradation of the network during the experiment. The increase in mass of the gels was monitored periodically by decanting and blotting the gel gently with a kimwipe to remove excess water before weighing. After 24 hours swelling, when swelling had stabilized, the mass of the gel was recorded (Meq). The equilibrium mass swelling ratio was then determined using the following relationship:
After weighing equilibrium-swelled gels to determine equilibrium mass swelling ratio, the gels were freeze-dried and the residual mass was weighed (Mres). It is expected that buffer salts present in the sample when it was formed were removed by the multiple changes of swelling solvent (pure water). The mass of the remaining residue was compared to the input mass (Min) of 4-PEG-SH macromer and OND-based linker. The ratio of the residual mass and the input mass provides the fraction of material by mass incorporated into the hydrogel network (gel fraction), as shown in the following equation: […]
The apparent molecular weight between elastically-productive crosslinks (Mc) was determined from equilibrium swelling data, collected as described in section VII.1 and applying a modified form of the Flory-Rehner equation for networks formed under dilute conditions:
[formula] where Mn is the number average molecular weight for the polymeric macromer (10,000 g/mol), v is the specific volume of the polymer ([…] for PEG) V1 is the molar volume of solvent used for swelling ([…] for water), χ is the polymer-interaction parameter (0.43 for PEG-H2O and assumed constant for the described experiments). V2, and V2, are the volume fraction of polymer in the equilibrium swollen gel and the relaxed gel after curing, respectively, and are calculated as follows:
[formula] where qw is the weight swelling ratio after equilibrium swelling, qF is the weight swelling ratio after curing, ρp is the density of the polymer (1.12 g/cm^3 for PEG), ρwater=ρcure solvent is the density of swelling solvent and solvent during gel formation (1.00 g/cm^3 for water). The weight swelling ratios qw and qF are determined from data gathered in equilibrium swelling experiments using the following relationships:
[formula] where ms is the mass of the gel after equilibrium swelling, mc is the mass of the gel after curing, and md is the mass of the dried gel, or input mass of polymer and crosslinkers.
Using the formulae above, masses of hydrogel samples recorded after equilibrium swelling, curing, and drying were applied to estimate the apparent molecular weight between crosslinks, which are summarized in Table 1 of the main text. The experimentally observed Mc values for gels formed using divalent OND linkers was lower than theoretical ideal value Mc,ideal. This can be explained by the fact that the Mc,ideal values calculated for these gels (entries 1-5 of Table S1) are greater than the entanglement molecular weight for polyethylene glycol (˜4,400 g/mol). […]

Data set [4] is described as follows: Calculation of hydrogel mesh size from equilibrium swelling data. Format: physicochemical. The following applies: for Calculated mesh size: equilibrium-swollen gels. On the procedure: Using the calculated molecular weight between crosslinks, Mc, and the method previously described by Canal and Peppas, the hydrogel mesh size was calculated. First, the root-mean-square end-to-end distance of the polymer chains in the network, (r0^2)^1/2, was calculated as follows: (r0^2)^1/2=lCn^1/2n^1/2 (Equation S10) where l is the average bond length in the polymer (0.146 nm for PEG) and Cn is the characteristic ratio of the polymer (4.0 for PEG). The average number of bonds between crosslinks, n is calculated using the following equation:
[formula] where Mc is the average molecular weight between crosslinks, calculated as described in the previous section, and Mr is the molecular weight of the repeating unit for the PEG macromer (44 g/mol). Finally, the mesh size, ξ, is calculated using the following relationship: ξ=v2,s^−1/3(r0^2)^1/2 (Equation S12) where v2, is the partial volume of polymer in the equilibrium swollen hydrogel, and is calculated using the experimentally determined equilibrium weight swelling ratios.

For “5/6-carboxyfluorescein [reference compound]”, the “kdiffusion of entrained cargo out of PEG-OND hydrogels” value in data set [1] turned out to be 0.000183 ± 8.3e-06 s⁻¹.

Compound `CCOC(=O)C1=C(C(F)(F)F)C2C=CC1(CNC(=O)CCCC(=O)NCC13C=CC(O1)C(C(F)(F)F)=C3C(=O)OCC)O2` [Linker 7b, Diethyl 1,1′-((glutaroylbis(azanediyl))bis(methylene))bis(3-(trifluoromethyl)-7-oxabicyclo[2.2.1]hepta-2,5-diene-2-carboxylate)] yielded a melting point of 166 to 169 °C. Also, in data set [2] (50° C.), the “Gel integrity on extended heating (inversion test)” value is recorded as “collapsed” and the “Time gel is stable / collapses (inversion test)” value was “approximately 13 hours”. The “Gel stability by time-lapse photography, gel supporting a glass bead” value in data set [2] (heating (50° C.)) is given as “more stable than those made with 7a”. In addition, the “Time gel is stable / collapses (inversion test)” value in data set [2] (37° C.) is “more than 60 hours”. Moreover, in data set [3], the “Mc (apparent molecular weight between elastic crosslinks)” value is 3698 ± 16 g/mol, the “Gel Fraction” value was 0.96 ± 0.02 and the “Equilibrium Swelling Ratio” value turned out to be 1.40 ± 0.02. Moreover, in data set [4] (average for equilibrium swelled hydrogels from linkers 7a, 7b and 8), the Average mesh size was 14.0±1.0 nm. In addition, the Calculated mesh size in data set [4] is listed as 13.1 ± 0.1 nm.

Regarding `CCOC(=O)C1=C(C(F)(F)F)C2C=CC1(CNC(=O)CCCC(=O)NCC13C=CC(O1)C(C(=O)OC)=C3C(=O)OC)O2` (centres unmarked) [Linker 10, Dimethyl 1-((5-(((2-(ethoxycarbonyl)-3-(trifluoromethyl)-7-oxabicyclo[2.2.1]hepta-2,5-dien-1-yl)methyl)amino)-5-oxopentanamido)methyl)-7-oxabicyclo[2.2.1]hepta-2,5-diene-2,3-dicarboxylate], the melting point is 93 to 97 °C. Moreover, in data set [3], the “Mc (apparent molecular weight between elastic crosslinks)” value was 4112 ± 94 g/mol, the “Gel Fraction” value is given as 0.98 ± 0.04 and the “Equilibrium Swelling Ratio” value is on record as 1.87 ± 0.12. Besides, the Calculated mesh size in data set [4] is given as 15.1 ± 1.3 nm.

As to “Bovine serum albumin: globular protein cargo, fluorescein-labeled bovine serum albumin”, the “kdiffusion of entrained cargo out of PEG-OND hydrogels” value in data set [1] was 1.4e-05 ± 2.8e-06 s⁻¹.

Values taken from US10517952B2, “Nucleophile-triggered degradable materials and methods of making and using the same” (GEORGIA TECH RESEARCH CORPORATION, priority 2014, dated 2019).
